Test results reported in patent US20160160189A1, “Truncated Constructs of RIPK3 and Related Uses” (ST. JUDE CHILDREN'S RESEARCH HOSPITAL, priority 2013, published 2016).

Assays:
[1] = tested on: NIH-3T3 cells stably expressing RIPK3-1xFv; assay: AP1-induced RIPK3 dimerization cell death, IncuCyte imaging; assay type: cell-based, murine; details: AP1 alone, absence of TNF; depended on AP1 concentration
Text: Fv domains rapidly dimerize in response to AP1 treatment that facilitated an investigation of the protein-protein interactions involved in RIPK3 activation and necroptosis (27a). For example, an Fv domain was appended to a C-terminus of RIPK3, that is adjacent to the RHIM domain, in an effort to mimic in situ RHIM-dependent interactions that define RIPK3 activation. RIPK3-1xFv was expressed in NIH-3T3 cells, a cell line that lacks endogenous RIPK3 expression and is therefore unresponsive to TNF-induced necroptosis. See, FIGS. 13A and 13B. Cell death responses of NIH-3T3 cells were quantified by construct expression over time using the IncuCyte imaging system, which allows precise quantification of cell death with high temporal resolution. For example, representative images were acquired from an IncuCyte Imager (data not shown). These images were NIH-3T3 cells stably expressing RIPK3-1xFV, treated with 10 nM AP1 (see FIG. 1B for a quantified graphical representation of this cell death). One set of images show a field of these cells undergoing RIPK3-dependent cell death; the media contains the cell impermeable DNA binding dye Sytox Green, which marks cells that have lost membrane integrity in green. Another set of images depicts the same image set, following analysis by the IncuCyte software package. This software counts each green (dead) cell in each image; counted cells are surrounded by purple halos. Each trace shown in this manuscript depicts data averaged from at least 3 independently treated wells of cells, each of which is imaged in at least 4 separate fields. Each experiment shown is representative of at least 3 separate replicates. All experiments on stably transduced cells is representative of at least three separate replicates performed on each of at least two distinct, independently-derived stable lines.
In the examples below, the following compounds were used: Recombinant murine TNF (Peprotech 315-01A) was used at 1 ng/ml unless otherwise specified; AP1 (Now commercialized by Clontech as “B/B Homodimerizer,” catalog #635059) was dissolved in ethanol to a concentration of 100 μM, then diluted in culture media to a final concentration of 30 nM unless otherwise indicated. zVAD (SM 13 Biochemicals SMFMK001) was dissolved in DMSO to a concentration of 50 mM, then diluted to 50 μM in culture media; Necrostatin-1(Sigma N9037-10MG) was dissolved in DMSO to a concentration of 30 mM, then diluted to 30 μM in culture media; TNFR-Fc (Fisher 430-RI-050) was used at a final concentration of 200 ng/ml; Shield drug was a kind gift of Dr. Tom Wandless and was used at a final concentration of 1 μM. SiGenome SMARTpool siRNAs were purchased from Dharmacon/Fisher. Pools targeting murine MLKL(M-061420-01), murine RIPK1 (M-040150-01), and murine caspase-8 (M-043044-01), as well as a non-targeting “scramble” pool(D-001206-14), were used. Two microliters of a 50 μM stock of these siRNAs were delivered to cells in 6-well format using Lipofectamine siRNA-Max reagent (Life Technologies 13778150) according to the manufacturer's instructions. Forty-eight hours later, these cells were re-plated into 24-well format for cell death assays, or harvested for western blot analysis of knockdowns.
These constructs were transduced into NIH-3T3 cells using standard protocols for helper-dependent retroviral transduction. Transduced cells were selected for 5 days in 1 μg/ml puromycin, then grown to confluence and sorted twice for homogenous GFP expression. […]

splenocyte proliferation = details: relative to rapamycin; cited from earlier work
[2] = serial dilution in (aqueous) culture medium; cited from earlier work
mice [3] = details: mouse, in vivo; cited from earlier work
cells = details: cited from earlier work
[4] = tested on: RIPK3 necrosome complex (RIPK1, caspase-8); assay: Anti-FLAG immunoprecipitation of necrosome complexes; assay type: cell-based, murine; details: AP1 30 minutes
Procedure: Immunoprecipitation of necrosome complexes were carried out using rabbit anti-FLAG antibodies, and TruBlot IP reagents (Rockland Immunochemicals) to eliminate non-specific signals from immunoglobulin heavy and light chains. Briefly, cell lines were treated as indicated and lysed in NP40 buffer (30 mM Tris, 150 mM NaCl, and 1% NP40) supplemented with protease inhibitors. Twenty micrograms of each sample were reserved for “input,” while 500 μg of total protein from each sample were immunoprecipitated with 0.5 μg antibody conjugated to 30 μL TruBlot anti-Rabbit IgG beads Immunocomplexes were washed 4 times in NP40 buffer, eluted by boiling, then run on western blot. Western blots were analyzed using standard primary antibodies, but TruBlot anti-Rabbit and anti-Mouse HRP-conjugated 14 secondary antibodies were used. A standard anti-Rat-HRP secondary was used to detect caspase-8.

[5] = tested on: NIH-3T3 cells expressing RIPK3-2xFv; assay: AP1-induced RIPK3 oligomerization cell death, IncuCyte imaging; assay type: cell-based, murine; details: compared with RIPK3-1xFv
Text: Consequently, two Fv domains were attached to the C-terminus of RIPK3, creating a RIPK3-2xFv construct, with the goal of promoting AP1-induced crosslinking and oligomerization independent of the RHIM domain. See, FIG. 12A. […] Compare, FIGS. 16A and 15A, respectively. […] Cells expressing this RHIM-deficient RIPK3^ΔC-2xFv construct were nonresponsive to TNF+zVAD, previously reported to be dependent on RIPK1 RHIM/RIPK3 RHIM interactions. See, FIG. 13G. […] See, FIG. 16C and FIG. 16D, respectively. […] See, FIG. 16E. […] See, FIG. 16F.
Cell death assays were carried out using a 2-color IncuCyte Zoom in-incubator imaging system (Essen Biosciences.) Briefly, this system allows fully automated imaging of cells at set intervals in phase contrast as well as both red and green fluorescent channels. Cell death assays were carried out by treating cells with death-inducing compounds in 24 well tissue culture vessels (100,000 cells/well), in the presence of 100 nM of the cell-impermeable DNA binding fluorescent dyes Sytox Green (Life Technologies 57020) or Yoyo-3 (Y3606), which are excluded from healthy cells but rapidly enter dying cells upon membrane permeabilization, in a manner analogous to propidium iodide.
Resulting images were analyzed using the software package supplied with the IncuCyte imager, which allows precise analysis of the number of Sytox Green or Yoyo-3 positive cells present in each image. For each experiment, a minimum of three separate wells were treated with each experimental condition, and a minimum of 4 image fields were assessed per well. Percent cell death was calculated by treating a minimum of three distinct wells in each experiment with 100 nM of the cell permeable fluorescent dye Syto Green (S7559), which allows quantification of the total number of cells present in each field. Dead cell events acquired via Sytox Green or Yoyo-3 staining were divided by this total cell number to yield percent cell death at each timepoint. Error bars represent standard deviation from the mean of a minimum of three independent wells. Each result depicted is representative of at least 4 distinct experiments, each of which contained at least 3 technical replicates.

RIPK3 complexes = assay: DSS crosslinking of necrosome complexes resolved by western blotting; assay type: cell-based, murine; details: DSS crosslinking, western blot
Procedure: A confluent monolayer of the indicated cells was incubated with the appropriate treatment for 30 minutes at 37 degrees. Cells were lysed in a modified, Tris-free NP40 buffer (30 mM HEPES pH 7.4, 150 mM NaCl, and 1% NP40) without protease inhibitors. Protein lysate was quantified according to standard BCA assay (Pierce) and fifty micrograms of each sample was treated with 0.1 mM DSS crosslinking agent (Thermo Scientific, #21658) for 30 minutes at room temperature; the reaction was quenched by the addition of Tris-HCl pH 7.2 to a final concentration of 50 mM for 15 minutes. Crosslinked samples were analyzed by Western blot as described above, using the anti-2A primary antibody for detection.

[6] = tested on: NIH-3T3 cells stably expressing RIPK3-1xFv; assay: TNF-induced necroptosis, IncuCyte imaging; assay type: cell-based, murine; details: TNF plus caspase inhibitor zVAD
Procedure: Expression of RIPK3-1xFv sensitized these cells to necroptosis induced by the combination of TNF and a caspase inhibitor (zVAD) in a manner analogous to that observed in Jax cells, a murine fibroblast line that expresses endogenous RIPK3. See, FIG. 13C. […]
Resulting images were analyzed using the software package supplied with the IncuCyte imager, which allows precise analysis of the number of Sytox Green or Yoyo-3 positive cells present in each image. For each experiment, a minimum of three separate wells were treated with each experimental condition, and a minimum of 4 image fields were assessed per well. Percent cell death was calculated by treating a minimum of three distinct wells in each experiment with 100 nM of the cell permeable fluorescent dye Syto Green (S7559), which allows quantification of the total number of cells present in each field. […]

wild type FKBP = wild type FKBP (Homo sapiens, UniProt P62942); details: relative to Phe36Val FKBP; cited from earlier work
Sequence of wild type FKBP (P62942 whole entry): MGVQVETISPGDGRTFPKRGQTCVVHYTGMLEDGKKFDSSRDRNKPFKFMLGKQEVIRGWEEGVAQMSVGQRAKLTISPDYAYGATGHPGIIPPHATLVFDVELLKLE

mice [7] = details: delivered intravenously; cited from earlier work
[8] = compared with AP1510; cited from earlier work
[9] = biological target: FKBPs with a single amino acid substitution, Phe36Val (Fv) (Homo sapiens, UniProt P62942, F37V); details: FKBP Phe36Val (Fv); cited from earlier work
Sequence of FKBPs with a single amino acid substitution, Phe36Val (Fv) (P62942 whole entry F37V): as the sequence (P62942 whole entry) above, with F37V counted along it

For `CC[C@H](C(=O)N1CCCC[C@H]1C(=O)O[C@H](CCc1ccc(OC)c(OC)c1)c1cccc(OCC(=O)NCC(CNC(=O)COc2cccc([C@@H](CCc3ccc(OC)c(OC)c3)OC(=O)[C@@H]3CCCCN3C(=O)[C@@H](CC)c3cc(OC)c(OC)c(OC)c3)c2)CN(C)C)c1)c1cc(OC)c(OC)c(OC)c1` [AP1], the “RIPK3 activation and necroptosis upon AP1 addition” value [1] was “limited RIPK3 activation and necroptosis”.
In the case of AP21967, the “less immunosuppressive than rapamycin” value (splenocyte proliferation) is listed as “greater than 1000 fold”, the “highest concentration ensuring complete solubility” value [2] is listed as at most 5 µM and the “non-toxic dose in mice” value (mice [3]) is listed as “up to 30 mg/kg”. The “non-toxic concentration to cells” value (cells) was “up to 1 μM”.
In the case of “RIPK3-2xFv: RIPK3 with two Fv domains attached to the C-terminus”, the “necrosome formation / interaction with RIPK1 and caspase-8 by construct” value [4] is reported as “interaction with RIPK1 and caspase-8, regardless of the presence of zVAD or Nec1”, the “necroptotic response to AP1” value [5] is reported as “faster and more robust necroptotic response” and the “RIPK3 complexes formed by construct after dimerizer (AP1) treatment” value (RIPK3 complexes) is reported as “large molecular weight RIPK3 complexes were observed”.
With “RIPK3-1xFv: murine RIPK3 fused to a single copy of mutated FKBP (F36V), Fv domain, at the C-terminus” the “sensitization to necroptosis induced by TNF and zVAD by construct expression” value [6] was “sensitized” and the “RIPK3 complexes formed by construct after dimerizer (AP1) treatment” value (RIPK3 complexes) was “present in a combination of dimers and larger oligomeric complexes”.
For `CC[C@H](C(=O)N1CCCC[C@H]1C(=O)O[C@H](CCc1ccc(OC)c(OC)c1)c1cccc(OCC(=O)NCC(CNC(=O)COc2cccc([C@@H](CCc3ccc(OC)c(OC)c3)OC(=O)[C@@H]3CCCCN3C(=O)[C@@H](CC)c3cc(OC)c(OC)c(OC)c3)c2)CN(C)C)c1)c1cc(OC)c(OC)c(OC)c1` [AP20187], the “lower affinity to the wild type protein” value (wild type FKBP) is given as 1000 fold, the “doses with maximal effects” value (mice [7]) is given as 0.5 to 10 mg/kg and the pharmacokinetic properties [8] is given as “better pharmacokinetic properties than AP1510”. The affinity [9] was “subnanomolar” and the toxicity to cells (cells) was “non-toxic”.
